Experimental data reported in US10351915B2 (Berg LLC, priority 2009, dated 2019).

Tests used:
[1] = tested on: Pyruvate Dehydrogenase beta (PDH-E1); test: Western blot, Pyruvate Dehydrogenase Beta levels; assay type: cell-based, human
Procedure: The pyruvate kinase blots were stripped by incubating for 30 minutes with methanol, followed by two 10 minute washes with TBS-T, then 30 minutes of incubation with Stripping buffer at 50 deg C., and followed by two washes with 100 ml or more of TBS-T for 30′ each. The 2 blots were scanned in laser scanner to check for complete stripping. After making sure stripping of the antibody and the ECF reagent has worked, the blots were activated with methanol for 5 seconds, washed with water for 5 minutes, and TBST for 15 minutes. The blots are blocked for 1 hour with 5% blocking reagent in TBS-T at room temperature and then washed 3 times with TBS-T (1×-15′; 2×5′ each) and probed with the antibody for Pyruvate Dehydrogenase in 5% BSA (ABNOVA catalog # H00005162-M03) at 1:500 dilutions) overnight at 4 deg C. with shaking. After the overnight incubation with primary antibody for Pyruvate Dehydrogenase, the membranes were washed 3 times with TBS-T (1×-15′; 2×5′ each) and probed with the secondary antibody (antimouse; 1:10,000 dilution) for 1 h on the orbital tilting shaker at room temperature. […]
The levels of LDH and PDH were determined by probing the blots successively with primary antibodies for LDH and PDH, essentially as described above. […]

[2] = tested on: MCF-7 breast cancer cells; test: Oxygen consumption rate (OCR), SeaHorse XF analyzer; assay type: cell-based; conditions: absence and presence of stressors
Text: (§1) (SeaHorse Biosciences Inc, North Billerica, Mass.).
(§2) In contrast, cancer cells (e.g., MCF-7, PaCa-2) are inherently primed to culture at higher levels of glucose compared to normal cells due to their glycolytic phenotype for maintenance in culture.

[3] = tested on: PaCa-2 pancreatic cancer cells; test: as above; assay type: cell-based; conditions: absence and presence of stressors
Text: as §1, §2

COC1=C(OC)C(=O)C(C/C=C(\C)CC/C=C(\C)CC/C=C(\C)CC/C=C(\C)CC/C=C(\C)CC/C=C(\C)CC/C=C(\C)CC/C=C(\C)CC/C=C(\C)CCC=C(C)C)=C(C)C1=O [Q10, Coenzyme Q10]
Pyruvate Dehydrogenase Beta Normalized Volume (48 h) ([1]; HepG2, 5g glucose, 48 h, amount 50): 123 | Pyruvate Dehydrogenase Beta Normalized Volume (24 h) ([1]; HepG2, 22G glucose, 24 h, amount 100): 340 | OCR values [2]: consistent reduction in OCR values | OCR values [3]: consistent reduction in OCR values
